One data set deals with T1, MC4R (Homo sapiens, UniProt P32245).
T1 construct: expressed in transfected cells; host or cells: flipin-293-MC4 (Flp-In 293 host, hygromycin selection)
As to the kind of experiment: Assay of MC4R antagonist activity in cells in vitro (cAMP assay, Melanotan I stimulation). It counts as cell-based. The conditions noted are these: flipin-293-MC4 cell line, Melanotan I as agonist. As to the method:
Test Example 1: Assay of MC4R antagonist activity in cells in vitro
a. Experimental consumables:
b. Experimental steps • ✔ Cell line: flipin-293-MC4 • ✔ Cell culture medium: DMEM, 10% fetal bovine serum, 1 × PS, 200 µg/mL hygromycin • ✔ Experimental buffer: HBSS, 20 mM HEPES, 0.1% BSA, 500 µM IBMX • ✔ Positive compound: ML00253764 c. Antagonist detection • 1. Digested cells were suspended in the experimental buffer, and then inoculated into the 384-well cell culture plate. • 2. The to-be-detected compound was added to the cell plate, and incubated at 37°C for 10 min. • 3. Melanotan I was added to the cell plate, and incubated at 37°C for 30 min. • 4. Two detection reagents EU cAMP tracer and ulight anti camp were thawed and diluted with a lysis solution in the kit. • 5. The diluted detection reagents were added to the cell plate and incubated at room temperature for 1 h. • 6. Reading was carried out by Envision. (Excitation light: 340 nm, emission light: 615 nm and 665 nm) d. Data analysis • 1. %Inhibition calculation: %Inhibition = (Signalcmpd−SignalAve_VC)/(SignalAve_PC−SignalAve_VC) × 100. [formula] • Signalcmpd: compound signal value; • SignalAve_VC: negative control signal value; • SignalAve_PC: positive control signal value; • %inhibition: inhibition percentage. • 2. Calculation of IC50 of the compound using the nonlinear fitting equation in GraphPad: Y = Bottom + (Top−Bottom)/(1+10^(∧)((LogIC50−X)×HillSlope)) [formula] X: logarithmic value of the concentration of the compound; Y: inhibition percentage

Data set [1] is described as follows: Pharmacokinetic study on the tested compound in SD male rats. It counts as in vivo. The conditions noted are these: IV 1 mpk/PO 2 mpk. Here is the method:
On the day of administration, the tested compound was prepared with 5% DMSO + 5% Solutol + 90% Saline as a solvent into a solution for administration for use.
The solution for administration was administered to an intravenous injection IV group at a dose of 1 mg/kg in a concentration of 0.2 mg/mL. The solution for administration was administered to an oral gavage PO group at a dose of 2 mg/kg in a concentration of 0.2 mg/mL. The animals in the PO group were required to fast overnight in advance, drink water freely, and be fed 4 hours after administration. The IV group was not required to fast.
The animals were weighed before administration. On the day of administration, the solution was IV/PO-administered once in an administration amount calculated based on the weight. In the IV group, blood was collected from veins at 0.083 h, 0.25 h, 0.5 h, 1.0 h, 2.0 h, 4.0 h, 8.0 h, and 24 h after administration. In the PO group, blood was collected from veins at 0.25 h, 0.5 h, 1.0 h, 2.0 h, 4.0 h, 6.0 h, 8.0 h, and 24 h after administration. The amount of blood collected was about 0.20 mL. K2-EDTA was used in blood collection tubes as an anticoagulant. The collected blood sample was centrifuged (centrifugation conditions: 6800 g, 6 min, 2°C to 8°C) within 1 h to obtain plasma. The to-be-tested sample was stored in a refrigerator at -80°C before analysis.
The concentration of the tested compound in the plasma of the SD male rats was detected by the validated LC-MS/MS method.

[2] abbreviates: Sprague-Dawley (SD), rat, plasma.

T1 sequence (P32245 whole entry): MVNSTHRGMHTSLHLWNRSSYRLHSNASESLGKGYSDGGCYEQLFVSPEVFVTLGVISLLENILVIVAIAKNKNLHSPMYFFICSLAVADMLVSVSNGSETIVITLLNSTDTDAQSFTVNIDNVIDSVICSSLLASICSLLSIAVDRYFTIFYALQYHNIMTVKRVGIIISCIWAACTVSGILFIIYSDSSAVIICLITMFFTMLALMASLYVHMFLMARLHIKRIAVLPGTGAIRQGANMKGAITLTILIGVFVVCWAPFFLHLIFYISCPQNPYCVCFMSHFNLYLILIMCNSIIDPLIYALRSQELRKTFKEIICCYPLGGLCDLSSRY

`COc1cc([C@@H](C)C(=O)N2CCC(Nc3ccc(-c4ncccn4)c(C)n3)C2)c(F)cn1` (stereo partly drawn) [Compound 001, (2R)-2-(5-fluoro-2-methoxypyridine-4-yl)-1-(3-((6-methyl-5-(pyrimidine-2-yl)pyridine-2-yl)amino)pyrrolidine-1-yl)propyl-1-one]: the IC50 at MC4R was determined as 16.4 nM.
For the molecule `COc1cc([C@@H](C)C(=O)N2C[C@@H](C)[C@H](Nc3ccc(-c4ncccn4)c(C)n3)C2)c(F)cn1` [Compound 051-2, (R)-2-(5-fluoro-2-methoxypyridine-4-yl)-1-((3R,4S)-3-methyl-4-((6-methyl-5-(pyrimidine-2-yl)pyridine-2-yl)amino)pyrrolidine-1-yl)propan-1-one], the IC50 on MC4R came out at 10.6 nM.
Take `COc1cc([C@@H](C)C(=O)N2CC[C@H](Nc3ccc(-c4ncc(C#N)cn4)c(C)n3)C2)c(F)cn1` [Compound 110, 2-(6-(((S)-1-((R)-2-(5-fluoro-2-methoxypyridine-4-yl)propionyl)pyrrolidine-3-yl)amino)-2-methylpyridine-3-yl)pyrimidine-5-nitrile]: the IC50 on MC4R stood at 26.2 nM.
`COc1cc([C@@H](C)C(=O)N2CC[C@H](Nc3ccc(-c4nccc(C#N)n4)c(C)n3)C2)c(Cl)cn1` [Compound 113, 2-(6-(((S)-1-((R)-2-(5-chloro-2-methoxypyridine-4-yl)propionyl)pyrrolidine-3-yl)amino)-2-methylpyridine-3-yl)pyrimidine-4-nitrile] displayed an IC50 at MC4R of 0.9 nM.
For the molecule `COc1ccc2nc(N[C@@H]3CN(C(=O)[C@H](C)c4cc(OC)ncc4F)CC34CC4)nc(C)c2c1` [Compound 115, (R)-2-(5-fluoro-2-methoxypyridine-4-yl)-1-((S)-7-((6-methoxy-4-methylquinazoline-2-yl)amino)-5-azaspiro[2.4]heptane-5-yl)propan-1-one], at MC4R, the IC50 came out at 2.78 nM.
Same read-out and setting: next, `COc1cc([C@@H](C)C(=O)N2C[C@@H](Nc3ccc4cc(OC)c(F)cc4n3)C3(CC3)C2)c(F)cn1` [Compound 117, (R)-2-(5-fluoro-2-methoxypyridine-4-yl)-1-((S)-7-((7-fluoro-6-methoxyquinoline-2-yl)amino)-5-azaspiro[2.4]heptane-5-yl)propan-1-one]: 1.57 nM.
With `COc1ccc2nc(N[C@@H]3CN(C(=O)[C@H](C)c4cc(OC)ncc4Cl)CC34CC4)nc(C)c2c1` [Compound 118], at MC4R, the IC50 is 3.75 nM.
In the case of `COc1cc([C@@H](C)C(=O)N2C[C@@H](Nc3ccc(-c4nc(C(F)F)n(C)n4)c(C)n3)C3(CC3)C2)c(F)cn1` [Compound 119, (R)-1-((S)-7-((5-(5-(difluoromethyl)-1-methyl-1H-1,2,4-triazole-3-yl)-6-methylpyridine-2-yl)amino)-5-azaspiro[2.4]heptane-5-yl)-2-(5-fluoro-2-methoxypyridine-4-yl)propan-1-one], the IC50 at MC4R came to 1.71 nM.
On the same count and under the same terms, next, `COc1cc([C@@H](C)C(=O)N2C[C@@H](Nc3ccc(-c4nc(C)n(C)n4)c(C)n3)C3(CC3)C2)c(F)cn1` [Compound 132, (2R)-1-[(7S)-7-{[5-(1,5-dimethyl-1H-1,2,4-triazole-3-yl)-6-methylpyridine-2-yl]amino}-5-azaspiro[2.4]heptane-5-yl]-2-(5-fluoro-2-methoxypyridine-4-yl)propan-1-one]: 1.06 nM.
`COc1cc([C@@H](C)C(=O)N2C[C@@H](Nc3ccc(-c4ncn(C)n4)c(C)n3)C3(CC3)C2)c(F)cn1` [Compound 136, (2R)-2-(5-fluoro-2-methoxypyridine-4-yl)-1-[(7S)-7-{[6-methyl-5-(1-methyl-1H-1,2,4-triazole-3-yl)pyridine-2-yl]amino}-5-azaspiro[2.4]heptane-5-yl]propan-1-one] gave an IC50 at MC4R of 1.28 nM.
Molecule `COc1cc([C@@H](C)C(=O)N2C[C@@H](Nc3ccc(-c4nc(C)n(C)n4)c(C)n3)C3(CC3)C2)c(Cl)cn1` [Compound 141, (2R)-2-(5-chloro-2-methoxypyridine-4-yl)-1-[(7S)-7-{[5-(1,5-dimethyl-1H-1,2,4-triazole-3-yl)-6-methylpyridine-2-yl]amino}-5-azaspiro[2.4]heptane-5-yl]propan-1-one] showed an IC50 on MC4R of 2.88 nM.
Turning to `COc1cc([C@@H](C)C(=O)N2C[C@@H](Nc3ccc(-c4ncn(C)n4)c(C)n3)C3(CC3)C2)c(Cl)cn1` [Compound 142, (2R)-2-(5-chloro-2-methoxypyridine-4-yl)-1-[(7S)-7-{[6-methyl-5-(1-methyl-1H-1,2,4-triazole-3-yl)pyridine-2-yl]amino}-5-azaspiro[2.4]heptane-5-yl]propan-1-one], on MC4R, the 50% inhibitory concentration (IC50) is 3.29 nM.
At MC4R, `COc1cc([C@@H](C)C(=O)N2C[C@@H](Nc3ccc(-c4cnn(C)c4)c(C)n3)C3(CC3)C2)c(F)cn1` [Compound 143, (2R)-2-(5-fluoro-2-methoxypyridine-4-yl)-1-((7S)-7-((6-methyl-5-(1-methyl-1H-pyrazol-4-yl)pyridine-2-yl)amino)-5-azaspiro[2.4]heptane-5-yl)propan-1-one] came in with a half-maximal inhibitory concentration (IC50) of 5.73 nM.
For `COc1cc([C@@H](C)C(=O)N2C[C@@H](Nc3ccc(-c4cnn(C)c4)c(C)n3)C3(CC3)C2)c(Cl)cn1` [Compound 144], the half-maximal inhibitory concentration (IC50) at MC4R turned out to be 1.83 nM.
On the same count and under the same terms, then `COc1cc([C@@H](C)C(=O)N2C[C@@H](Nc3ccc(-c4cn(C)c(C)n4)c(C)n3)C3(CC3)C2)c(F)cn1` [Compound 149, (R)-1-((S)-7-((5-(1,2-dimethyl-1H-imidazol-4-yl)-6-methylpyridine-2-yl)amino)-5-azaspiro[2.4]hept-5-yl)-2-(5-fluoro-2-methoxypyridine-4-yl)propan-1-one], with 1.74 nM; and `COc1cc([C@@H](C)C(=O)N2C[C@@H](Nc3ccc(-c4cn(C)cn4)c(C)n3)C3(CC3)C2)c(F)cn1` [Compound 150, (R)-2-(5-fluoro-2-methoxypyridine-4-yl)-1-((S)-7-((6-methyl-5-(1-methyl-1H-imidazol-4-yl)pyridine-2-yl)amino)-5-azaspiro[2.4]hept-5-yl)propan-1-one], with 1.84 nM.
Same read-out and setting: next, `COc1cc([C@@H](C)C(=O)N2C[C@@H](Nc3ccc(-c4nccc(C(F)F)n4)c(C)n3)C3(CC3)C2)c(F)cn1` [Compound 155, (R)-1-((S)-7-((5-(4-(difluoromethyl)pyrimidine-2-yl)-6-methylpyridine-2-yl)amino)-5-azaspiro[2.4]hept-5-yl)-2-(5-fluoro-2-methoxypyridine-4-yl)propan-1-one]: 3.04 nM; `COc1cc([C@@H](C)C(=O)N2C[C@@H](Nc3ccc(-c4nccc(C(F)F)n4)c(C)n3)C3(CC3)C2)c(Cl)cn1` [Compound 156, (R)-2-(5-chloro-2-methoxypyridine-4-yl)-1-((S)-7-((5-(4-(difluoromethyl)pyrimidine-2-yl)-6-methylpyridine-2-yl)amino)-5-azaspiro[2.4]hept-5-yl)propan-1-one]: 1.85 nM.
The same measure, in the same setting: next, `COc1cc([C@@H](C)C(=O)N2C[C@@H](Nc3ccc(-c4cnn(C)n4)c(C)n3)C3(CC3)C2)c(Cl)cn1` [Compound 166, (R)-2-(5-chloro-2-methoxypyridine-4-yl)-1-((S)-7-((6-methyl-5-(2-methyl-2H-1,2,3-triazol-4-yl)pyridine-2-yl)amino)-5-azaspiro[2.4]hept-5-yl)propan-1-one]: 4.03 nM.
In data set [1], `COc1cc([C@@H](C)C(=O)N2CC[C@H](Nc3ccc(-c4cn(C)c(OC(F)F)n4)c(C)n3)C2)c(F)cn1` [Compound 197, (R)-1-((S)-3-((5-(2-(difluoromethoxy)-1-methyl-1H-imidazol-4-yl)-6-methylpyridine-2-yl)amino)pyrrolidine-1-yl)-2-(5-fluoro-2-methoxypyridine-4-yl)propan-1-one] gave an F of 11.1%. In data set [1] (setting [2]), this molecule gave an AUC of 43 ng·h/mL, a Cmax of 35 ng/mL, a clearance of 86.9 mL/min/kg and a half-life of 1.2 h.

The IC50 is the midpoint of a concentration-inhibition curve. A lower IC50 goes with greater potency in that assay. By AUC is commonly meant the area under the concentration-time curve, a measure of exposure. A higher AUC goes with high exposure. As a reminder, the Cmax is the highest concentration seen after dosing. Usually half-life stands for how long it takes for the measured level to halve. Low values mean rapid decline, high ones slow decline.

Values taken from patent EP4620955A1, “MC4R ANTAGONIST COMPOUND, PHARMACEUTICAL COMPOSITION AND PHARMACEUTICAL USE THEREOF” (Changchun Genescience Pharmaceutical Co., Ltd., priority 2022, dated 2024).
